Literature values as cited in patent publication US20200306231A1, “ORAL HYPOGLYCEMIC AGENTS AS FOOD ADDITIVES AND SUPPLEMENTS” (priority 2017, published 2020).

Legend:
[1] = type 2 diabetes patients followed for 10 years; taking metformin compared with not taking metformin
[2] = neoadjuvant chemotherapy; type 2 diabetes patients taking metformin
[3] = type 2 diabetes
[4] = lung cancer after chemotherapy; type 2 diabetics taking metformin
[5] = ovarian cancer after chemotherapy, type 2 diabetes
[6] = another study
[7] = DPPOS
[8] = type 2 diabetes population; compared with other anti-diabetes drugs
[9] = tested on: nematodes
[10] = tested on: mouse model
[11] = in vivo

| Structure (SMILES) | lower risk of developing any type of cancer [1] [%] | chance of having a complete response (no residual cancer found during surgery) [2] [%] | risk of developing colorectal cancer, greater for those not taking metformin versus those taking metformin [3] [%] | survival greater for those taking metformin versus not taking [3] [%] | overall survival rate [4] [months] | progression free survival [4] [months] | 5-year overall survival rate ([5]; metformin users) [%] | progression free survival at 5 years ([5]; taking metformin) [%] | risk reduction for developing prostate cancer (type 2 diabetics taking metformin compared with not taking) | overall survival rate greater, taking metformin versus not taking (type 2 diabetics who have prostate cancer) [%] | improved survival with metformin use [6] [%] | safety and tolerability [7] | weight loss [7] | risk of cardiovascular disease [8] | lifespan [9] | lifespan and health span [10] | side effect known to be caused [11] |
| --- | --- | --- | --- | --- | --- | --- | --- | --- | --- | --- | --- | --- | --- | --- | --- | --- | --- |
| CN(C)C(=N)N=C(N)N [metformin] | 54 | 24 | 200 | 34 | 20 | 8.4 | 63 | 51 | no risk reduction | 45 | 24 | safe and well tolerated | moderate but durable weight loss | decreased risk of cardiovascular disease | extends the lifespan | extends both lifespan and health span | diarrhea |
| COc1ccc2cc3[n+](cc2c1OC)CCc1cc2c(cc1-3)OCO2 [berberine] |  |  |  |  |  |  |  |  |  |  |  |  |  |  |  |  | constipation |
